Measurements reported in PMC10669118 (2023).
Each block holds one compound with its values, some of them ahead of it.

Key:
[1] = system: STAT (HEX) (DNA, G4) GGGCTGGGGATGGGGAGGGGG; experiment: microscale thermophoresis; details: 10 mM KCl, 20 mM sodium phosphate; pH 7.4, 22 °C, DMSO and Tween 20; said to be submicromolar
[2] = system: 22AG (DNA, G4) AGGGTTAGGGTTAGGGTTAGGG; experiment: FRET melting; details: 10 mM KCl, 20 mM sodium phosphate, pH 7.4, 20 µM compound; for binding: 1 µM DNA (legend of Figure 3 prints them reversed)
[3] = system: cKit1 (HEX) (DNA, G4) GGGAGGGCGCTGGGAGGAGGG; experiment: microscale thermophoresis; details: 10 mM KCl, 20 mM sodium phosphate; pH 7.4, 22 °C, DMSO and Tween 20; said to be submicromolar
[4] = system: 22CTA (DNA, G4) AGGGCTAGGGCTAGGGCTAGGG; experiment: FRET melting; details: 10 mM KCl, 20 mM sodium phosphate, pH 7.4, 20 µM compound
[5] = system: cKit1 (DNA, G4) GGGAGGGCGCTGGGAGGAGGG; experiment: FRET melting; details: 10 mM KCl, 20 mM sodium phosphate; pH 7.4; 20 µM compound, 1 µM DNA
[6] = system: STAT (DNA, G4) GGGCTGGGGATGGGGAGGGGG; experiment: FRET melting; details: 10 mM KCl, 20 mM sodium phosphate; pH 7.4; 20 µM compound, 1 µM DNA
[7] = system: BclT (DNA, G4) GGGGGCCGTGGGGTGTGAGCTGGGG; experiment: FRET melting; details: 10 mM KCl, 20 mM sodium phosphate; pH 7.4; 20 µM compound, 1 µM DNA
[8] = system: VEGF (DNA, G4) GGGAGGGTTGGGGTGGG; experiment: FRET melting; details: 25 mM LiCl, 5 mM sodium phosphate; pH 7.4; 20 µM compound, 1 µM DNA
[9] = system: Hair (DNA, hairpin) GTATAGCTATTTTTATAGCTATA; experiment: FRET melting; details: 10 mM KCl, 20 mM sodium phosphate; pH 7.4; 20 µM compound, 1 µM DNA
[10] = system: cMyc (DNA, G4) TGAGGGTGGGTAGGGTGGGTAA; experiment: FRET melting; details: 10 mM KCl, 20 mM sodium phosphate; pH 7.4; 20 µM compound, 1 µM DNA
[11] = system: Ct1 (DNA, G4) GGTGACAGGGGTATGGGGAGGGG; experiment: FRET melting; details: 10 mM KCl, 20 mM sodium phosphate; pH 7.4; 20 µM compound, 1 µM DNA

- Kd [1]: 0.4 µM
SMILES: CN(C)CCNC(=O)COc1ccc2c(c1)nc1ccn(CC(=O)NCCN(C)C)c(=O)n12

- binding [2]: yes
SMILES: N=C(N)NCCNC(=O)COc1cc2nc3ccn(CC(=O)NCCNC(=N)N)c(=O)n3c2c2ccccc12

- binding [2]: yes
- Kd [3]: 0.5 µM
- binding ([4]; 1 µM DNA (legend of Figure 3 prints them reversed)): yes
SMILES: NCCNC(=O)COc1cc2nc3ccn(CC(=O)NCCN)c(=O)n3c2c2ccccc12

- Kd [3]: 0.6 µM
- Kd [1]: 0.5 µM
SMILES: NCCNC(=O)Cn1ccc2nc3cc(O)c4ccccc4c3n2c1=O

- ΔTm ([2]; 1 µM DNA): 1 ± 2 °C
- ΔTm [5]: 3 ± 2 °C
- ΔTm [6]: 1 ± 2 °C
- ΔTm [7]: 0 ± 2 °C
- ΔTm [8]: 1 ± 2 °C
- ΔTm [9]: -1 ± 2 °C
- ΔTm [10]: 1 ± 2 °C
- ΔTm [11]: 2 ± 2 °C
- ΔTm ([4]; 1 µM DNA): 1 ± 2 °C
SMILES: NCCNC(=O)Cn1ccc2nc3cc(O)ccc3n2c1=O
